From US11976064B2, “Toll-like receptor agonists” (Pfizer Inc., priority 2019, dated 2024)

Biological target: T1, human toll like receptor 7 (hTLR7) (Homo sapiens, UniProt Q9NYK1)
T1 construct: host or cells: HEK293 (HEK-Blue hTLR7)
T1 sequence (Q9NYK1 27-1049): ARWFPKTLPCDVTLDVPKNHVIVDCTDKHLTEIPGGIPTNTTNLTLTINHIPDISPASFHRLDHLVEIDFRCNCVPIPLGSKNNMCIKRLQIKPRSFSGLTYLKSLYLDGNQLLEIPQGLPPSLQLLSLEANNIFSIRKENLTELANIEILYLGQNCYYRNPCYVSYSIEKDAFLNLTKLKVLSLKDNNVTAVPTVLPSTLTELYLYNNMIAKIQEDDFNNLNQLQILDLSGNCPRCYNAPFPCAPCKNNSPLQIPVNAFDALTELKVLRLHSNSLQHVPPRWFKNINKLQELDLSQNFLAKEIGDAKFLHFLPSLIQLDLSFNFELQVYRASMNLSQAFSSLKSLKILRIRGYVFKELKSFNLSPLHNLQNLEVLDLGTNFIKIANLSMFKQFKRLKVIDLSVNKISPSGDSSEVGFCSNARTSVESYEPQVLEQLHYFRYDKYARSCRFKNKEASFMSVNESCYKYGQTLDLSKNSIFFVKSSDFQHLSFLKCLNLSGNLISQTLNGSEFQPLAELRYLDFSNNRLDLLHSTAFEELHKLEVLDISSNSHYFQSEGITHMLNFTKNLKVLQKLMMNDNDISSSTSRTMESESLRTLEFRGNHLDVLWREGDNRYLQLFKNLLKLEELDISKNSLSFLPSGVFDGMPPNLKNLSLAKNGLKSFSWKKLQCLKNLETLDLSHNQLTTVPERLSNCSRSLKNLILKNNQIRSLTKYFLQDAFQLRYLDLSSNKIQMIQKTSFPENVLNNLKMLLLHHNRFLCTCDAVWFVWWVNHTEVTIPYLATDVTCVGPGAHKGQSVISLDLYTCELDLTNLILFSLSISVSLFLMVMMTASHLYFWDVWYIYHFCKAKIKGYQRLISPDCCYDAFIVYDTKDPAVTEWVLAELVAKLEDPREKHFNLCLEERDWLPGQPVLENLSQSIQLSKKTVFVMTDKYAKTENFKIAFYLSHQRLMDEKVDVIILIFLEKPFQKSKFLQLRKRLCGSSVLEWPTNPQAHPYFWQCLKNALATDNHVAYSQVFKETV
Test: hTLR7 cell functional assay (HEK-Blue hTLR7 SEAP reporter)
Format: cell-based
Settings: HEK293 cells stably overexpressing hTLR7, SEAP reporter; geometric mean when tested more than once
Protocol: The Examples described were tested for biological activity in functional cellular assays using HEK293 cells stably overexpressing human TLR7 or TLR8. The assays tested for the ability of each Example to stimulate secretion of interferon alpha (IFNα) in human primary blood mono nuclear cells (PBMC).
To determine the ability of each Example to activate the human toll like receptor 7 (hTLR7) or human toll like receptor 8 (hTLR8), cell-based reporter systems were utilized. HEK293 cells stably overexpressing either hTLR7 or hTLR8 along with a reporter gene containing an optimized secreted embryonic alkaline phosphatase gene (SEAP), under the control of the IFN-b minimal promoter fused to five NF-κB and AP-1-binding sites, were obtained from Invivogen (HEK-Blue™ hTLR7, cat #Hkb-ht1r7; HEK-Blue™ hTLR8, cat #Hkb-ht1r8). Stimulation of hTLR7 or hTLR8 in these cells activates NF-κB and AP-1 and induces the production of SEAP which can be quantified using an alkaline phosphatase detection reagent.
Cells were maintained in Dulbecco's Modified Eagle Media (DMEM) (containing Fetal Bovine Serum (FBS) heat inactivated (10%), Glutamax (2 mM), Penicillin/Streptomycin, Blasticidin (10 μg/ml), Zeocin (100 μg/ml) and Normocin (100 μg/ml)). On day one of the assay, Examples were prepared using 11-point half-log serial dilutions from a 10mM DMSO stock solution and 50 nl was spotted into 384-well Viewplates (PerkinElmer, cat #6007480). Positive control TLR7/8 agonist and negative control (DMSO, no Example) were also spotted within the assay plate and were used to determine percent effect during the analysis process. After resuspension in DMEM assay media containing FBS heat inactivated (10%), Glutamax (2 mM) and Penicillin/Streptomycin, 10,000 cells/20 μl/well were added to previously prepared plates. Plates were incubated overnight (16-20 hrs) at 37° C. in a 5% CO2 environment. Prewetted Microclime lids (Labcyte, LLS-0310) were used to prevent evaporation. On day two of the assay, QUANTI-Blue™ detection reagent was prepared by reconstituting QUANTI-Blue™ powder (InvivoGen, Rep-qb1) with 100 ml of sterile water and allowed to equilibrate to 37° C. for 15 minutes. 20 μl of QUANTI-Blue™ detection reagent was added to each well and plates were incubated at room temperature for 180 min. At the end of the incubation, plates were read on an Envision (Perkin Elmer) plate reader capturing absorbance at 650 nm.
Using Positive (TLR7/8 agonist) and Negative (DMSO) controls, the percent (%) effect was calculated for each Example using the following equation: effect=100−[100*{(Example−Positive Control)/(Negative Control−Positive Control)}]
The % effect at each concentration of each Example was calculated utilizing the ABase software suite (IBDS) and was relative to the amount of SEAP produced in the positive and negative control wells contained within each assay plate. The concentrations and % effect values for each Example were fit using a 4-parameter logistic model in ABase and the concentration of each Example that produced 50% response (EC50) was calculated.

EC50 [nM]	SMILES
29	CCOCc1nc2c(N)nc3ccccc3c2n1CC(C)(CO)CO [Example 3, 2-((4-amino-2-(ethoxymethyl)-1H-imidazo[4,5-c]quinolin-1-yl)methyl)-2-methylpropane-1,3-diol]
19	CCCc1nc2c(N)nc3ccccc3c2n1CC(C)(CO)CO [Example 16, 2-((4-amino-2-propyl-1H-imidazo[4,5-c]quinolin-1-yl)methyl)-2-methylpropane-1,3-diol]
49	CCOCc1nc2c(N)nc(C)c(C)c2n1CC(C)(CO)COC (single isomer, unassigned) [Example 6, 3-(4-amino-2-(ethoxymethyl)-6,7-dimethyl-1H-imidazo[4,5-c]pyridin-1-yl)-2-(methoxymethyl)-2-methylpropan-1-ol]
75	CCc1nc2c(N)nc3ccccc3c2n1CC(C)(CO)CO [Example 15, 2-((4-amino-2-ethyl-1H-imidazo[4,5-c]quinolin-1-yl)methyl)-2-methylpropane-1,3-diol]
78	Cc1nc(N)c2nc(CC(F)(F)F)n(CC(C)(CO)CO)c2c1C [Example 8, 2-((4-amino-6,7-dimethyl-2-(2,2,2-trifluoroethyl)-1H-imidazo[4,5-c]pyridin-1-yl)methyl)-2-methylpropane-1,3-diol]
9	CCCCc1nc2c(N)nc3c(c2n1CC(C)(CO)CO)CCCC3 [Example 13, 2-((4-amino-2-butyl-6,7,8,9-tetrahydro-1H-imidazo[4,5-c]quinolin-1-yl)methyl)-2-methylpropane-1,3-diol]
644	CCOCc1nc2c(N)nc(C)c(C)c2n1CC(CO)CO [Example 1, 2-((4-amino-2-(ethoxymethyl)-6,7-dimethyl-1H-imidazo[4,5-c]pyridin-1-yl)methyl)propane-1,3-diol]
27	CCOCc1nc2c(N)nc(C)c(C)c2n1CC(CC)(CO)CO [Example 9, 2-((4-amino-2-(ethoxymethyl)-6,7-dimethyl-1H-imidazo[4,5-c]pyridin-1-yl)methyl)-2-ethylpropane-1,3-diol]
4	CCCCc1nc2c(N)nc3ccccc3c2n1CC(C)(CO)CO [Example 10, 2-((4-amino-2-butyl-1H-imidazo[4,5-c]quinolin-1-yl)methyl)-2-methylpropane-1,3-diol]
103	CCOCc1nc2c(N)nc(C)c(C)c2n1CC(C)(CO)COC (single isomer, unassigned) [Example 7, 3-(4-amino-2-(ethoxymethyl)-6,7-dimethyl-1H-imidazo[4,5-c]pyridin-1-yl)-2-(methoxymethyl)-2-methylpropan-1-ol]
54	CCOCc1nc2c(N)nc(C)c(C)c2n1CC(C)(CO)CO [Example 2, 2-((4-amino-2-(ethoxymethyl)-6,7-dimethyl-1H-imidazo[4,5-c]pyridin-1-yl)methyl)-2-methylpropane-1,3-diol]
14	CCCCc1nc2c(N)nc3c(c2n1CC(C)(CO)CO)CCC3 [Example 14, 2-((4-amino-2-butyl-7,8-dihydrocyclopenta[b]imidazo[4,5-d]pyridin-1(6H)-yl)methyl)-2-methylpropane-1,3-diol]
